Assays:
Conditions in all cases: incubation time: 72 h
BT-474 [1] = assay: normalised response (% of control), CellTox Green; higher = less cell death (100 = DMSO, 0 = benzethonium chloride kill control)
In short: (§1)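 Compound was dispensed into 384-well plates at 5 concentrations in 10-fold steps spanning a 10,000-fold range specific to that compound. Breast cancer cell lines were added as 20 µl suspension and left for 72 h before CellTox Green fluorescence (485/520 nm) and then CellTiter-Glo luminescence, read after 10 min at room temperature. Each reported value is the normalised signal at one concentration, with 0.1 % DMSO set at 100 and a positive kill control at 0 on each plate.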

BT-549 [2] = assay: as above
In short: as §1

CAL-120 [3] = assay: as above
In short: as §1

CAL-148 [4] = assay: as above
In short: as §1

CAL-51 [5] = assay: as above
In short: as §1

CAL-85-1 [6] = assay: as above
In short: as §1

DU-4475 [7] = assay: as above
In short: as §1

HCC1143 [8] = assay: as above
In short: as §1

HCC1599 [9] = assay: as above
In short: as §1

HCC1937 [10] = assay: as above
In short: as §1

HDQ-P1 [11] = assay: as above
In short: as §1

Hs578T [12] = assay: as above
In short: as §1

MCF-10A [13] = assay: as above
In short: as §1

MDA-MB-231 [14] = assay: as above
In short: as §1

MDA-MB-436 [15] = assay: as above
In short: as §1

MDA-MB-453 [16] = assay: as above
In short: as §1

MFM-223 [17] = assay: as above
In short: as §1

BT-474 [18] = assay: normalised response (% of control), CellTiter-Glo; higher = more viable cells (100 = DMSO, 0 = benzethonium chloride kill control)
Experimental: (§2)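 DSRT, 72 h incubation, CellTox Green / CellTiter-Glo readout. Signal is normalised to DMSO and benzethonium chloride controls. Value is the normalised response at dose 3.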

BT-549 [19] = assay: as above
Experimental: as §2

CAL-120 [20] = assay: as above
Experimental: as §2

CAL-148 [21] = assay: as above
Experimental: as §2

CAL-51 [22] = assay: as above
Experimental: as §2

CAL-85-1 [23] = assay: as above
Experimental: as §2

DU-4475 [24] = assay: as above
Experimental: as §2

HCC1143 [25] = assay: as above
Experimental: as §2

HCC1599 [26] = assay: as above
Experimental: as §2

HCC1937 [27] = assay: as above
Experimental: as §2

HDQ-P1 [28] = assay: as above
Experimental: as §2

Hs578T [29] = assay: as above
Experimental: as §2

MCF-10A [30] = assay: as above
Experimental: as §2

MDA-MB-231 [31] = assay: as above
Experimental: as §2

MDA-MB-436 [32] = assay: as above
Experimental: as §2

MDA-MB-453 [33] = assay: as above
Experimental: as §2

MDA-MB-468 [34] = assay: as above
Experimental: as §2

MFM-223 [35] = assay: as above
Experimental: as §2

SK-BR-3 = assay: as above
Experimental: as §2

MDA-MB-468 [36] = assay: normalised response (% of control), CellTox Green; higher = less cell death (100 = DMSO, 0 = benzethonium chloride kill control)
In short: as §1

Row | Structure (SMILES) | normalised response (BT-474 [1]) | normalised response (BT-549 [2]) | normalised response (CAL-120 [3]) | normalised response (CAL-148 [4]) | normalised response (CAL-51 [5]) | normalised response (CAL-85-1 [6]) | normalised response (DU-4475 [7]) | normalised response (HCC1143 [8]) | normalised response (HCC1599 [9]) | normalised response (HCC1937 [10]) | normalised response (HDQ-P1 [11]) | normalised response (Hs578T [12]) | normalised response (MCF-10A [13]) | normalised response (MDA-MB-231 [14]) | normalised response (MDA-MB-436 [15]) | normalised response (MDA-MB-453 [16]) | normalised response (MFM-223 [17]) | normalised response (BT-474 [18]) | normalised response (BT-549 [19]) | normalised response (CAL-120 [20]) | normalised response (CAL-148 [21]) | normalised response (CAL-51 [22]) | normalised response (CAL-85-1 [23]) | normalised response (DU-4475 [24]) | normalised response (HCC1143 [25]) | normalised response (HCC1599 [26]) | normalised response (HCC1937 [27]) | normalised response (HDQ-P1 [28]) | normalised response (Hs578T [29]) | normalised response (MCF-10A [30]) | normalised response (MDA-MB-231 [31]) | normalised response (MDA-MB-436 [32]) | normalised response (MDA-MB-453 [33]) | normalised response (MDA-MB-468 [34]) | normalised response (MFM-223 [35]) | normalised response (SK-BR-3) | normalised response (MDA-MB-468 [36])
1 | CCN(CC)CCCC(C)Nc1ccnc2cc(Cl)ccc12 (stereo unspecified) [Chloroquine] (1000 nM) | 79.8% | 105% | 103% | 104% | 85.5% | 110% | 99.9% | 109% | 97.9% | 102% | 88.4% | 99.3% | 86.3% | 98% | 85% | 96.3% | 87.7% | 101% | 103% | 110% | 86.9% | 78.1% | 102% | 93% | 97.4% | 97% | 90.6% | 103% | 96% | 94.4% | 98.1% | 108% | 81.3% | 83.1% | 93.4% | 82.9% | –
2 | CC(C)(C)c1nc(-c2cccc(NS(=O)(=O)c3c(F)cccc3F)c2F)c(-c2ccnc(N)n2)s1 [Dabrafenib] (25 nM) | 103% | 98.8% | 105% | 106% | 110% | 107% | 99.8% | 107% | 93.3% | 94.8% | 95.9% | – | 108% | 114% | 79.1% | 105% | – | 99.2% | 104% | 99.8% | 108% | 89.9% | 96.6% | 82.6% | 118% | 105% | 102% | 103% | 104% | 115% | 100% | 111% | 96.7% | 94.7% | 106% | 110% | 119%
3 | CO[C@@]12[C@H](COC(N)=O)C3=C(C(=O)C(C)=C(N)C3=O)N1C[C@@H]1N[C@@H]12 [Mitomycin C] (100 nM) | 100% | 99.5% | 101% | 60.3% | 73.6% | 93.3% | 95.3% | 90% | 91.5% | 84.9% | – | – | 81.8% | 97% | 83.8% | 102% | 99.2% | 95.2% | 96.5% | 91.8% | 89.6% | 101% | 101% | 99% | 98.2% | 95.7% | 93.9% | 104% | 98.9% | 92.2% | 93.5% | 90.8% | 94.1% | 91.3% | 93.8% | 94% | –
4 | CC1(C)CCC(c2ccc(Cl)cc2)=C(CN2CCN(c3ccc(C(=O)NS(=O)(=O)c4ccc(N[C@H](CCN5CCOCC5)CSc5ccccc5)c(S(=O)(=O)C(F)(F)F)c4)cc3)CC2)C1 [Navitoclax] (100 nM) | 99.4% | 96.6% | 92.1% | 100% | 94% | 93.6% | 96.2% | 92.1% | 101% | 67.1% | – | – | 79.6% | 73.8% | 72.7% | 92% | 103% | 88.1% | 96.7% | 87.2% | 88% | 104% | 89.7% | 92.9% | 95.6% | 94.5% | 87.9% | 96.8% | 93.6% | 91.4% | 91.4% | 91.9% | 87.7% | 83% | 96% | 88.5% | 104%
5 | CC(C)n1cnc2c(NCCc3ccc(O)cc3)nc(-c3csc4ccccc34)nc21 [StemRegenin 1] (100 nM) | 80% | 100% | 102% | 103% | 89.2% | 113% | 102% | 96.3% | 99.5% | 98.2% | 88.2% | – | 117% | 111% | 118% | 109% | 98.8% | 100% | 99.2% | 112% | 103% | 80.8% | 98.8% | 98.4% | 109% | 91% | 96.9% | 95.2% | 103% | 99.5% | 112% | 101% | 93.8% | 93.8% | 104% | 103% | 105%

From the supplement of paper PMC4862054
